Tested on: mESC-derived NPCs
Assay: Expansion culture: serial passaging of RA±BMP4 patterned EBs in CHIR or DMSO
Format: cell-based, mouse
Protocol: For expansion cultures. EBs were dissociated in single cell suspension at day 6 by treating with 0.25% Trypsin, followed by trituration to break up the larger cell clumps. Cells were pelleted and passaged in N2/B27 medium containing either DMSO or 5 μM CHIR at 1:3 dilution. Media was changed at every third day during the expansion culture.
Finally, we assessed whether the mitogenic properties of Wnt signaling can be leveraged to expand the pool of mESC-derived NPCs. RA±BMP4 patterned EBs were serially passaged at 1:3 dilution […] in the presence of DMSO (control) or CHIR (FIG. 7A).
Embryonic stem cells are first directed to a day 4 neural precursor cell (NPC) state, and then Wnt signaling is continually switched on using CHIR, which starts the process of proliferation. The cells are then passaged every 6 days. with a 1:3 split. Control NPCs die almost immediately, while “expanded” cells keep dividing for as long as they have been passaged to date (three months). These NPCs can then be differentiated. Differentiation of the expanded cultures without any further signals yields dI3s and dI5s. A further pulse for two days with RA (day 3-5), produces dI4, dI5 and dI6. Pulsing them with RA+BMP4, yields dI1, dI2 and dW3.
Thus, a method of keeping dorsal progenitors (dPs) in a proliferative state for many passages (perhaps indefinitely) is provided. The proliferative state can be maintained without changing the fate potential of the dPs. mESCs are first patterned according to either the RA or RA+BMP4 protocol, up to day 6. After patterning, the dPs are then reintroduced to medium containing CHIR (Wnt agonist, that stimulates Wnt signaling). The CHIR-treated cultures can then serially expand 3-fold every 6 days (a passage), unlike control (DMSO-treated) cells, which start dying at passage 2 (FIG. 7). To date we have expanded dPs for 7-8 passages, i.e. a couple of months.

SMILES: Cc1c[nH]c(-c2cnc(NCCNc3ccc(C#N)cn3)nc2-c2ccc(Cl)cc2Cl)n1 [CHIR, CHIR99021]
- EB size over three consecutive passages (CHIR vs DMSO, RA and RA+BMP4 patterned EBs): decrease in EB size
- Sox2+ NPC identity after passaging (CHIR-treated EBs): remained Sox2^+ after multiple passages
- serial expansion of CHIR-treated cultures every 6 days (a passage) (Example 2): 3 fold
- increase in the number of EBs after each passage compared to DMSO-treated EBs (RA- and RA+BMP4-treated EBs): > 6 fold
- increase in the number of CHIR-treated EBs by the third passage (passaged 1:3 every 7 days): 3- to 6 fold
